# Measurements from ChEMBL document CHEMBL1156163, “(18)F Labeled benzimidazole derivatives as potential radiotracer for positron emission tomography (PET) tumor imaging” (Bioorg Med Chem, 2010).
# Tests used:
# Heart [1] = test: Biodistribution in mouse S180 cells xenografted Kunming mouse heart at 10 to 20 uCi, iv after 30 mins by gamma counting; format: ADME, organism-based, CCRF S-180; conditions: in vivo, 0.5 h
# Lung [2] = test: Biodistribution in mouse S180 cells xenografted Kunming mouse lung at 10 to 20 uCi, iv after 5 mins by gamma counting; format: ADME, organism-based, CCRF S-180; conditions: in vivo
# Blood [3] = test: Biodistribution in mouse S180 cells xenografted Kunming mouse blood at 10 to 20 uCi, iv after 15 mins by gamma counting; format: ADME, organism-based, CCRF S-180; conditions: in vivo, 0.25 h
# Pancreas [4] = test: Biodistribution in mouse S180 cells xenografted Kunming mouse pancreas at 10 to 20 uCi, iv after 15 mins by gamma counting; format: ADME, organism-based, CCRF S-180; conditions: in vivo, 0.25 h
# Liver [5] = test: Biodistribution in mouse S180 cells xenografted Kunming mouse liver at 10 to 20 uCi, iv after 15 mins by gamma counting; format: ADME, organism-based, CCRF S-180; conditions: in vivo, 0.25 h
# Pancreas [6] = test: Biodistribution in mouse S180 cells xenografted Kunming mouse pancreas at 10 to 20 uCi, iv after 30 mins by gamma counting; format: ADME, organism-based, CCRF S-180; conditions: in vivo, 0.5 h
# [7] = Ratio of drug uptake in tumor to brain of mouse S180 cells xenografted Kunming mouse at 10 to 20 uCi, iv after 5 mins by gamma counting; format: ADME, organism-based, CCRF S-180; conditions: in vivo
# Blood [8] = test: Biodistribution in mouse S180 cells xenografted Kunming mouse blood at 10 to 20 uCi, iv after 5 mins by gamma counting; format: ADME, organism-based, CCRF S-180; conditions: in vivo
# Pancreas [9] = test: Biodistribution in mouse S180 cells xenografted Kunming mouse pancreas at 10 to 20 uCi, iv after 5 mins by gamma counting; format: ADME, organism-based, CCRF S-180; conditions: in vivo
# Liver [10] = test: Biodistribution in mouse S180 cells xenografted Kunming mouse liver at 10 to 20 uCi, iv after 120 mins by gamma counting; format: ADME, organism-based, CCRF S-180; conditions: in vivo, 2 h
# [11] = Ratio of drug uptake in tumor to blood of mouse S180 cells xenografted Kunming mouse at 10 to 20 uCi, iv after 120 mins by gamma counting; format: ADME, organism-based, CCRF S-180; conditions: tumour, 2 h
# [12] = Ratio of drug uptake in tumor to muscle of mouse S180 cells xenografted Kunming mouse at 10 to 20 uCi, iv after 15 mins by gamma counting; format: ADME, organism-based, CCRF S-180; conditions: in vivo, 0.25 h
# Kidney [13] = test: Biodistribution in mouse S180 cells xenografted Kunming mouse kidney at 10 to 20 uCi, iv after 120 mins by gamma counting; format: ADME, organism-based, CCRF S-180; conditions: in vivo, 2 h
# [14] = Ratio of drug uptake in tumor to blood of mouse S180 cells xenografted Kunming mouse at 10 to 20 uCi, iv after 60 mins by gamma counting; format: ADME, organism-based, CCRF S-180; conditions: tumour, 1 h
# Brain [15] = test: Biodistribution in mouse S180 cells xenografted Kunming mouse brain at 10 to 20 uCi, iv after 5 mins by gamma counting; format: ADME, organism-based, CCRF S-180; conditions: in vivo
# Heart [16] = test: Biodistribution in mouse S180 cells xenografted Kunming mouse heart at 10 to 20 uCi, iv after 120 mins by gamma counting; format: ADME, organism-based, CCRF S-180; conditions: in vivo, 2 h
# [17] = Biodistribution in mouse S180 cells xenografted Kunming mouse tumor at 10 to 20 uCi, iv after 5 mins by gamma counting; format: ADME, organism-based, Neoplasm, CCRF S-180; conditions: in vivo
# Kidney [18] = test: Biodistribution in mouse S180 cells xenografted Kunming mouse kidney at 10 to 20 uCi, iv after 5 mins by gamma counting; format: ADME, organism-based, CCRF S-180; conditions: in vivo
# [19] = Ratio of drug uptake in tumor to muscle of mouse S180 cells xenografted Kunming mouse at 10 to 20 uCi, iv after 30 mins by gamma counting; format: ADME, organism-based, CCRF S-180; conditions: in vivo, 0.5 h
# [20] = Ratio of drug uptake in tumor to brain of mouse S180 cells xenografted Kunming mouse at 10 to 20 uCi, iv after 120 mins by gamma counting; format: ADME, organism-based, CCRF S-180; conditions: in vivo, 2 h
# Lung [21] = test: Biodistribution in mouse S180 cells xenografted Kunming mouse lung at 10 to 20 uCi, iv after 120 mins by gamma counting; format: ADME, organism-based, CCRF S-180; conditions: in vivo, 2 h
# Liver [22] = test: Biodistribution in mouse S180 cells xenografted Kunming mouse liver at 10 to 20 uCi, iv after 60 mins by gamma counting; format: ADME, organism-based, CCRF S-180; conditions: in vivo, 1 h
# Liver [23] = test: Biodistribution in mouse S180 cells xenografted Kunming mouse liver at 10 to 20 uCi, iv after 5 mins by gamma counting; format: ADME, organism-based, CCRF S-180; conditions: in vivo
# [24] = Ratio of drug uptake in tumor to brain of mouse S180 cells xenografted Kunming mouse at 10 to 20 uCi, iv after 60 mins by gamma counting; format: ADME, organism-based, CCRF S-180; conditions: in vivo, 1 h
# [25] = Biodistribution in mouse S180 cells xenografted Kunming mouse tumor at 10 to 20 uCi, iv after 30 mins by gamma counting; format: ADME, organism-based, Neoplasm, CCRF S-180; conditions: in vivo, 0.5 h
# Pancreas [26] = test: Biodistribution in mouse S180 cells xenografted Kunming mouse pancreas at 10 to 20 uCi, iv after 120 mins by gamma counting; format: ADME, organism-based, CCRF S-180; conditions: in vivo, 2 h
# [27] = Ratio of drug uptake in tumor to blood of mouse S180 cells xenografted Kunming mouse at 10 to 20 uCi, iv after 5 mins by gamma counting; format: ADME, organism-based, CCRF S-180; conditions: tumour
# Brain [28] = test: Biodistribution in mouse S180 cells xenografted Kunming mouse brain at 10 to 20 uCi, iv after 60 mins by gamma counting; format: ADME, organism-based, CCRF S-180; conditions: in vivo, 1 h
# Kidney [29] = test: Biodistribution in mouse S180 cells xenografted Kunming mouse kidney at 10 to 20 uCi, iv after 60 mins by gamma counting; format: ADME, organism-based, CCRF S-180; conditions: in vivo, 1 h
# Muscle tissue = test: Biodistribution in mouse S180 cells xenografted Kunming mouse muscle at 10 to 20 uCi, iv after 5 mins by gamma counting; format: ADME, organism-based, CCRF S-180; conditions: in vivo
# [30] = Biodistribution in mouse S180 cells xenografted Kunming mouse tumor at 10 to 20 uCi, iv after 60 mins by gamma counting; format: ADME, organism-based, Neoplasm, CCRF S-180; conditions: in vivo, 1 h
# Brain [31] = test: Biodistribution in mouse S180 cells xenografted Kunming mouse brain at 10 to 20 uCi, iv after 30 mins by gamma counting; format: ADME, organism-based, CCRF S-180; conditions: in vivo, 0.5 h
# Brain [32] = test: Biodistribution in mouse S180 cells xenografted Kunming mouse brain at 10 to 20 uCi, iv after 15 mins by gamma counting; format: ADME, organism-based, CCRF S-180; conditions: in vivo, 0.25 h
# [33] = Ratio of drug uptake in tumor to muscle of mouse S180 cells xenografted Kunming mouse at 10 to 20 uCi, iv after 60 mins by gamma counting; format: ADME, organism-based, CCRF S-180; conditions: in vivo, 1 h
# Blood [34] = test: Biodistribution in mouse S180 cells xenografted Kunming mouse blood at 10 to 20 uCi, iv after 60 mins by gamma counting; format: ADME, organism-based, CCRF S-180; conditions: in vivo, 1 h
# Lung [35] = test: Biodistribution in mouse S180 cells xenografted Kunming mouse lung at 10 to 20 uCi, iv after 15 mins by gamma counting; format: ADME, organism-based, CCRF S-180; conditions: in vivo, 0.25 h
# Kidney [36] = test: Biodistribution in mouse S180 cells xenografted Kunming mouse kidney at 10 to 20 uCi, iv after 15 mins by gamma counting; format: ADME, organism-based, CCRF S-180; conditions: in vivo, 0.25 h
# Blood [37] = test: Biodistribution in mouse S180 cells xenografted Kunming mouse blood at 10 to 20 uCi, iv after 30 mins by gamma counting; format: ADME, organism-based, CCRF S-180; conditions: in vivo, 0.5 h
# Lung [38] = test: Biodistribution in mouse S180 cells xenografted Kunming mouse lung at 10 to 20 uCi, iv after 60 mins by gamma counting; format: ADME, organism-based, CCRF S-180; conditions: in vivo, 1 h
# Brain [39] = test: Biodistribution in mouse S180 cells xenografted Kunming mouse brain at 10 to 20 uCi, iv after 120 mins by gamma counting; format: ADME, organism-based, CCRF S-180; conditions: in vivo, 2 h
# [40] = Ratio of drug uptake in tumor to blood of mouse S180 cells xenografted Kunming mouse at 10 to 20 uCi, iv after 15 mins by gamma counting; format: ADME, organism-based, CCRF S-180; conditions: tumour, 0.25 h
# Heart [41] = test: Biodistribution in mouse S180 cells xenografted Kunming mouse heart at 10 to 20 uCi, iv after 5 mins by gamma counting; format: ADME, organism-based, CCRF S-180; conditions: in vivo
# [42] = Ratio of drug uptake in tumor to muscle of mouse S180 cells xenografted Kunming mouse at 10 to 20 uCi, iv after 5 mins by gamma counting; format: ADME, organism-based, CCRF S-180; conditions: in vivo
structure (smiles),measurement,setting,value
N[C@@H](Cc1ccc(OCC[18F])cc1)C(=O)O [FLORETYROSINE F18],Drug uptake,Heart [1],3.27 % ID/g
same,Drug uptake,Lung [2],16.8 % ID/g
same,Drug uptake,Blood [3],3.3 % ID/g
same,Drug uptake,Pancreas [4],0.22 % ID/g
same,Drug uptake,Liver [5],5.6 % ID/g
same,Drug uptake,Pancreas [6],0.11 % ID/g
same,Ratio,[7],2.1
same,Drug uptake,Blood [8],6.81 % ID/g
same,Drug uptake,Pancreas [9],0.93 % ID/g
same,Drug uptake,Liver [10],1.22 % ID/g
same,Ratio,[11],1.92
same,Ratio,[12],0.75
same,Drug uptake,Kidney [13],1.29 % ID/g
same,Ratio,[14],1.1
same,Drug uptake,Brain [15],0.99 % ID/g
same,Drug uptake,Heart [16],0.94 % ID/g
same,Drug uptake,[17],2.08 % ID/g
same,Drug uptake,Kidney [18],6.58 % ID/g
same,Ratio,[19],0.62
same,Ratio,[20],2.95
same,Drug uptake,Lung [21],1.55 % ID/g
same,Drug uptake,Liver [22],3.56 % ID/g
same,Drug uptake,Liver [23],7.67 % ID/g
same,Ratio,[24],2.92
same,Drug uptake,[25],3.28 % ID/g
same,Drug uptake,Pancreas [26],0.09 % ID/g
same,Ratio,[27],0.31
same,Drug uptake,Brain [28],0.94 % ID/g
same,Drug uptake,Kidney [29],3.75 % ID/g
same,Drug uptake,Muscle tissue,2.88 % ID/g
same,Drug uptake,[30],2.75 % ID/g
same,Drug uptake,Brain [31],1.29 % ID/g
same,Drug uptake,Brain [32],1.03 % ID/g
same,Ratio,[33],1.23
same,Drug uptake,Blood [34],2.51 % ID/g
same,Drug uptake,Lung [35],9.82 % ID/g
same,Drug uptake,Kidney [36],6.79 % ID/g
same,Drug uptake,Blood [37],3.23 % ID/g
same,Drug uptake,Lung [38],4.7 % ID/g
same,Drug uptake,Brain [39],0.73 % ID/g
same,Ratio,[40],0.76
same,Drug uptake,Heart [41],5.89 % ID/g
same,Ratio,[42],0.72
